In US9822155B2 (priority 2013, dated 2017):
In brackets after ≈: the same amount, converted by molar mass. Where two headings read alike, the source gives them in different places. Peptide text beside a SMILES is read from it.

Assays:
in vitro = settings: dog, MDCK cells
[1] = test system: A/Hong Kong/415742Md/2009 (H1N1); type: in vivo
influenza A virus (H1N1) = type: cell-based, influenza A virus A/Hong Kong/415742Md/2009 (H1N1)

Row | Structure (SMILES) | CC50 at 24 h (in vitro) | viability at 24 h, 7.8 µg/mL (in vitro) | viability at 24 h, 15.6 µg/mL (in vitro) | viability at 24 h, 31.25 µg/mL (in vitro) | viability at 24 h, 62.5 µg/mL (in vitro) | viability at 24 h, 125 µg/mL (in vitro) | viability at 24 h, 250 µg/mL (in vitro) | TC50 (50% toxic concentration) (MDCK cells) | antiviral effectiveness in low-salt PB compared with high-salt MEM (influenza A virus (H1N1)) | further results
1 | CC[C@H](C)[C@H](NC(=O)[C@H](C)NC(=O)CNC(=O)[C@@H](N)CC(N)=O)C(=O)N[C@@H](CS)C(=O)N[C@@H](Cc1c[nH]c2ccccc12)C(=O)NCC(=O)N1CCC[C@H]1C(=O)N[C@@H](CS)C(=O)N1CCC[C@H]1C(=O)N[C@H](C(=O)N[C@@H](C)C(=O)N[C@@H](Cc1ccccc1)C(=O)N[C@@H](CCCNC(=N)N)C(=O)N[C@@H](CCC(N)=O)C(=O)N[C@H](C(=O)NCC(=O)N[C@@H](CC(N)=O)C(=O)N[C@@H](CS)C(=O)NCC(=O)N[C@@H](Cc1c[nH]cn1)C(=O)N[C@@H](Cc1ccccc1)C(=O)N[C@@H](CCCCN)C(=O)N[C@H](C(=O)N[C@@H](CCCNC(=N)N)C(=O)N[C@@H](CS)C(=O)N[C@@H](CS)C(=O)N[C@@H](CCCCN)C(=O)N[C@H](C(=O)N[C@@H](CCCNC(=N)N)C(=O)O)[C@@H](C)CC)C(C)C)[C@@H](C)CC)[C@@H](C)O [Peptide P9] (H-NGAICWGPCPTAFRQIGNCGHFKVRCCKIR-OH) | 860 µg/mL (≈ 258 µM) | 102% | 95.9% | 108% | 96% | 94.7% | 95.3% | 860 µg/mL (≈ 258 µM) | more effective in low-salt phosphate buffer (PB) than in high-salt minimum essential medium (MEM) | viability at 24 h, 500 µg/mL (in vitro): 83.4%; viability at 24 h, 750 µg/mL (in vitro): 59.8%; viability at 24 h, 1000 µg/mL (in vitro): 38.7%; endosomal acidification (red fluorescence of pHrodo Red dextran) (endosomal acidification): no red fluorescence in color image was observed; binding of P9 to cells (H1N1 virus): no P9 (SEQ ID NO: 10) was detected on the cell membrane or inside the cells; binding of P9 to virus particles (H1N1 virus): bound to the green-labeled virus particles; virus binding to the cell membrane (H1N1 virus): could not block the virus binding to the cell membrane; virus entry into cells by endocytosis (H1N1 virus): did not affect the virus entry into cells by endocytosis; viral loads in lung tissues (RNA copies by RT-PCR, titers by plaque assay) ([1]; pretreated and i.n. or i.p. treated mice, day 5 after challenge, versus untreated): significantly lower than those of the untreated mice; alveolar damage and interstitial inflammatory infiltration in lung (H&E) ([1]; pretreated or treated mice versus rmBD4 and untreated mice): much less severe; survival rate ([1]; prophylactic, i.n. 50 μg/mouse before challenge with 5 LD50 H1N1, 9 mice/group, 21 days): 100%; survival rate ([1]; therapeutic, i.n. 3 doses 50 μg/dose/day starting 4 hours after lethal challenge): 67%; survival rate ([1]; therapeutic, i.p. 6 doses 200 μg/dose/day starting 4 hours post-challenge): 22%; survival rate ([1]; therapeutic, i.p. 6 doses 400 μg/dose/day starting 4 hours post-challenge): 56%; antiviral effect (infection ratio by plaque assay) (influenza A virus (H1N1)): highest antiviral effect
2 | CC[C@H](C)[C@H](N)C(=O)N[C@H](C(=O)N[C@@H](CC(N)=O)C(=O)N[C@@H](CC(N)=O)C(=O)N1CCC[C@H]1C(=O)N[C@H](C(=O)N[C@H](C(=O)N[C@@H](CS)C(=O)N[C@@H](CCSC)C(=O)N[C@H](C(=O)N[C@@H](CC(N)=O)C(=O)NCC(=O)N[C@@H](C)C(=O)N[C@H](C(=O)N[C@@H](CS)C(=O)N[C@@H](Cc1c[nH]c2ccccc12)C(=O)NCC(=O)N1CCC[C@H]1C(=O)N[C@@H](CS)C(=O)N1CCC[C@H]1C(=O)N[C@H](C(=O)N[C@@H](C)C(=O)N[C@@H](Cc1ccccc1)C(=O)N[C@@H](CCCNC(=N)N)C(=O)N[C@@H](CCC(N)=O)C(=O)N[C@H](C(=O)NCC(=O)N[C@@H](CC(N)=O)C(=O)N[C@@H](CS)C(=O)NCC(=O)N[C@@H](Cc1c[nH]cn1)C(=O)N[C@@H](Cc1ccccc1)C(=O)N[C@@H](CCCCN)C(=O)N[C@H](C(=O)N[C@@H](CCCNC(=N)N)C(=O)N[C@@H](CS)C(=O)N[C@@H](CS)C(=O)N[C@@H](CCCCN)C(=O)N[C@H](C(=O)N[C@@H](CCCNC(=N)N)C(=O)O)[C@@H](C)CC)C(C)C)[C@@H](C)CC)[C@@H](C)O)[C@@H](C)CC)[C@@H](C)O)[C@@H](C)O)[C@@H](C)CC)[C@@H](C)CC [smBD4, reference compound] | 94 µg/mL (≈ 21.2 µM) | 93.7% | 85.3% | 71.9% | 60% | 45.5% | 36.5% | 94 µg/mL (≈ 21.2 µM) | more effective in low-salt phosphate buffer (PB) than in high-salt minimum essential medium (MEM) | 
